Source: the NIST ThermoML archive (doi:10.1021/je200145r)

Test: wn = mass fraction of the nth substance listed
Conditions: 101 kPa, Liquid; for viscosity: Capillary tube (Ostwald / Ubbelohde) method

C1COCCO1 [1,4-dioxane] + CO
Conditions | mass density, 298.15 K [kg/m3] | mass density, 303.15 K [kg/m3] | mass density, 308.15 K [kg/m3] | mass density, 313.15 K [kg/m3] | viscosity, 298.15 K [mPa·s] | viscosity, 303.15 K [mPa·s] | viscosity, 308.15 K [mPa·s] | viscosity, 313.15 K [mPa·s]
w1 = 0.1 | 811.2 | 806.4 | 801.7 | 796.9 | 0.55 | 0.511 | 0.473 | 0.432
w1 = 0.2 | 834.4 | 828.8 | 823.4 | 818.4 | 0.554 | 0.517 | 0.482 | 0.448
w1 = 0.3 | 852.5 | 847.4 | 842.6 | 838 | 0.565 | 0.527 | 0.489 | 0.452
w1 = 0.4 | 875.1 | 870.2 | 865.5 | 860.6 | 0.587 | 0.548 | 0.508 | 0.467
